# Experiment: Water solubility of the salts
# Type: physicochemical
# Settings: not given
# From the text: Organische Lösungsmittel tragen zur Umweltverschmutzung bei und deshalb ist es wünschenswert, Wasser als Basis für Reaktionen oder auch Lacke zu verwenden. […] Wir beobachteten, dass vor allem die Kombination mit Alkalimetallen zu einer sehr guten Löslichkeit führte.
# Ein wichtiges Kriterium für die Auswahl der Substanzen für eingehendere Studien, war deren Wasserlöslichkeit. Ausgeschlossen wurden vor allem Verbindungen, die höhere Kationen als die Alkalimetalle enthalten, da diese nur sehr schlecht löslich sind. Trotzdem wurde zumindest für zwei wasserunlösliche Salze versucht, sie als Suspensionen aufzubringen. Ausgewählt wurden dafür ALDA und Calcium(II)hydantoinat.
Compound,Wasser löslich,Wasserlöslichkeit
"O=C1CNC(=O)N1 [Hydantoin Kalium, Kalium(I)hydantoinat]",+,
"NC(=O)NC1NC(=O)NC1=O (stereo not shown) [Allantoin Natrium, Natrium(I)allantoinat]",+,
Tetrakis(hydroxymethyl)phosphoniumhydantoinat,+,
"O=C1CNC(=O)N1 [Hydantoin Tetramethylammonium, Tetramethylammoniumhydantoinat]",+,
"O=C1CN(CN2CC(=O)NC2=O)C(=O)N1 [1,1'-(Methylen) bishydantoin Natrium, Natrium(I)N,N'-methylenbishydantoinat]",+,
"NC(=O)NC1NC(=O)NC1=O (stereo not shown) [Allantoin, reference compound]",,schlecht wasserlöslich
"NC(=O)NC1NC(=O)NC1=O (stereo not shown) [Allantoin Calcium, Calcium(II)allantoinat]",+,
"CC(N1CC(=O)NC1=O)N1CC(=O)NC1=O [1,1'-(Methylmethylen) bishydantoin Natrium] [Natrium(I)N,N'-(methylmethylen)bishydantoinat]",+,
"CC(N1CC(=O)NC1=O)N1CC(=O)NC1=O [1,1'-(Methylmethylen) bishydantoin Kalium] [Kalium(I)N,N'-(methylmethylen)bishydantoinat]",+,
"O=C1CNC(=O)N1 [Hydantoin Natrium, Natrium(I)hydantoinat]",+,
"Dihydroxyaluminiumallantoinat [Allantoin Al(OH)2*, reference compound]",-,
"O=C1CN(CN2CC(=O)[N-]C2=O)C(=O)[N-]1.OC[P+](CO)(CO)CO.OC[P+](CO)(CO)CO [Bis[tetrakis(hydroxymethyl)phosphonium]N,N'-methylenbishydantoinat]",+,
"O=C1CNC(=O)N1 [Hydantoin Calcium, Calcium(II)hydantoinat]",-,
"NC(=O)NC1NC(=O)NC1=O (stereo not shown) [Allantoin Kalium, Kalium(I)allantoinat]",+,
"CC(N1CC(=O)NC1=O)N1CC(=O)NC1=O [1,1'-(Methylmethylen) bishydantoin Calcium] [Calcium(II)N,N'-(methylmethylen)bishydantoinat]",+,
"O=C1CN(CN2CC(=O)NC2=O)C(=O)N1 [1,1'-(Methylen) bishydantoin Kalium, Kalium(I)N,N'-methylenbishydantoinat]",+,

# Same assay, conditions: in words
row,Compound,Wasserlöslichkeit
1,"Dihydroxyaluminiumallantoinat [Allantoin Al(OH)2*, reference compound]",wasserunlösliche
2,"O=C1CNC(=O)N1 [Hydantoin Calcium, Calcium(II)hydantoinat]",wasserunlösliche
3,"O=C1CNC(=O)N1 [Hydantoin, reference compound]",schlecht wasserlöslich
